Patent US11753407B2, “Compounds for treating spinal muscular atrophy” (PTC Therapeutics, Inc., priority 2012, dated 2023)

Key:
[1] = test system: SMN2 minigene mRNA (SMN2-A minigene) in HEK293H cells; assay: SMN2 minigene mRNA splicing RT-qPCR assay in cultured cells; assay type: cell-based, human; settings: Homo sapiens, HEK293-H; concentration increasing full length SMN2 mRNA 1.5-fold relative to vehicle-treated cells; HEK293H cells with SMN2-A minigene, 24 hours, 7-point concentration data; read-out: EC1.5x for production of full length SMN2 mRNA
Method in brief: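 HEK293H cells stably carrying SMN2-A minigene treated with compounds (7-point, 3.16-fold dilutions, duplicates) for 24 h at 37 °C. Full-length exon 7-containing minigene mRNA measured by multiplex RT-qPCR with GAPDH, normalized and expressed relative to vehicle (modified ΔΔCt); EC1.5× is concentration giving 1.5-fold increase.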

[2] = test system: Smn protein in SMA patient fibroblast cells (GM03813); assay: Smn protein assay in cultured cells (SMN HTRF); assay type: cell-based, human; settings: SMA patient fibroblast cells, 48 hours; for EC1.5x for Smn protein expression: 7-point concentration curve, SMN HTRF, concentration producing 1.5 times Smn protein vs DMSO vehicle control; for maximum fold (Fold) increase of Smn protein: 7-point concentration data, fold relative to vehicle control
Method in brief: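 SMA patient fibroblasts (5,000/well, DMEM-10% FBS) treated 48 h at 37° C with 7-point, 3.16-fold compound series in triplicate; lysates read by SMN HTRF (665/620 nm ratio). Fold Smn increase over DMSO vehicle derived; EC1.5× is concentration giving 1.5-fold Smn, with maximum fold also reported.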

SMILES | EC (1.5-fold increase) [1] [µM] | EC1.5x for Smn protein expression [2] | maximum fold (Fold) increase of Smn protein [2]
Cc1nc2c(F)cc(-c3cc(=O)n4cc(N5CCN(C)CC5)ccc4n3)cc2o1 [Compound 308, 2-(4-fluoro-2-methyl-1,3-benzoxazol-6-yl)-7-(4-methylpiperazin-1-yl)-4H-pyrido[1,2-a]pyrimidin-4-one] | < 0.1 | **** (an EC1.5x≤0.3 μM is indicated by four stars (****)) | ***** (a fold increase >1.65 is indicated by five stars (*****))
COc1ccc(-c2cc(=O)n3cc(C4C[C@H]5CC[C@@H](C4)N5C)ccc3n2)cc1OC (stereo partly drawn) [Compound 320, 2-(3,4-dimethoxyphenyl)-7-[(1R,5S)-8-methyl-8-azabicyclo[3.2.1]oct-3-yl]-4H-pyrido[1,2-a]pyrimidin-4-one] | 0.3 to 1 | ** (an EC1.5× between >1 μM and ≤3 μM is indicated by two stars (**)) | **** (a fold increase between >1.5 and ≤1.65 is indicated by four stars (****))
COc1ccc(-c2cc(=O)n3cc(N4CCNC[C@H]4C)ccc3n2)cc1OC [Compound 321, 2-(3,4-dimethoxyphenyl)-7-[(2R)-2-methylpiperazin-1-yl]-4H-pyrido[1,2-a]pyrimidin-4-one] | 1 to 3 |  | *** (a fold increase between >1.35 and ≤1.5 is indicated by three stars (***))
Cc1nc2ccc(-c3cc(=O)n4cc(N5CCN(C)CC5)ccc4c3)cc2o1 [Compound 323, 2-(2-methyl-1,3-benzoxazol-6-yl)-7-(4-methylpiperazin-1-yl)-4H-quinolizin-4-one] | 0.1 to 0.3 | ** (an EC1.5× between >1 μM and ≤3 μM is indicated by two stars (**)) | *** (a fold increase between >1.35 and ≤1.5 is indicated by three stars (***))
Cc1cn2nc(-c3cc(=O)n4cc(N5CCN[C@H](C)C5)ccc4n3)cc2c(C)n1 [Compound 335, 2-(4,6-dimethylpyrazolo[1,5-a]pyrazin-2-yl)-7-[(3R)-3-methylpiperazin-1-yl]-4H-pyrido[1,2-a]pyrimidin-4-one] | < 0.1 | **** (an EC1.5x≤0.3 μM is indicated by four stars (****)) | ***** (a fold increase >1.65 is indicated by five stars (*****))
CCN1CCN(c2ccc3nc(-c4cc5c(C)nc(C)cn5n4)cc(=O)n3c2)C[C@H]1C [Compound 343, 2-(4,6-dimethylpyrazolo[1,5-a]pyrazin-2-yl)-7-[(3R)-4-ethyl-3-methylpiperazin-1-yl]-4H-pyrido[1,2-a]pyrimidin-4-one] | < 0.1 | **** (an EC1.5x≤0.3 μM is indicated by four stars (****)) | ***** (a fold increase >1.65 is indicated by five stars (*****))
Cc1nc2cc(-c3cc(=O)n4cc(N5C[C@H]6CNC[C@H]6C5)ccc4n3)ccc2s1 [Compound 349, 7-[(3aR,6aS)-hexahydropyrrolo[3,4-c]pyrrol-2(1H)-yl]-2-(2-methyl-1,3-benzothiazol-5-yl)-4H-pyrido[1,2-a]pyrimidin-4-one] | < 0.1 | ** (an EC1.5× between >1 μM and ≤3 μM is indicated by two stars (**)) | *** (a fold increase between >1.35 and ≤1.5 is indicated by three stars (***))
Cc1cn2nc(-c3cc(=O)n4cc(C5=CCN(C6CC6)CC5)ccc4n3)cc2c(C)n1 [Compound 354, 7-(1-cyclopropyl-1,2,3,6-tetrahydropyridin-4-yl)-2-(4,6-dimethylpyrazolo[1,5-a]pyrazin-2-yl)-4H-pyrido[1,2-a]pyrimidin-4-one] | < 0.1 | *** (an EC1.5× between >0.3 μM and ≤1 μM is indicated by three stars (***)) | **** (a fold increase between >1.5 and ≤1.65 is indicated by four stars (****))
Cc1cn2nc(-c3cc(=O)n4cc(C5=CCN(C6COC6)CC5)ccc4n3)cc2c(C)n1 [Compound 357, 2-(4,6-dimethylpyrazolo[1,5-a]pyrazin-2-yl)-7-[1-(oxetan-3-yl)-1,2,3,6-tetrahydropyridin-4-yl]-4H-pyrido[1,2-a]pyrimidin-4-one] | 0.1 to 0.3 | *** (an EC1.5× between >0.3 μM and ≤1 μM is indicated by three stars (***)) | **** (a fold increase between >1.5 and ≤1.65 is indicated by four stars (****))
CNC1CCN(c2cc(C)c3nc(-c4ccc(OC)c(OC)c4)cc(=O)n3c2)CC1 [Compound 358, 2-(3,4-dimethoxyphenyl)-9-methyl-7-[4-(methylamino)piperidin-1-yl]-4H-pyrido[1,2-a]pyrimidin-4-one] | < 0.1 | ** (an EC1.5× between >1 μM and ≤3 μM is indicated by two stars (**)) | *** (a fold increase between >1.35 and ≤1.5 is indicated by three stars (***))
CCNC1CCN(c2cc(C)c3nc(-c4ccc(OC)c(OC)c4)cc(=O)n3c2)CC1 [Compound 359] | < 0.1 | ** (an EC1.5× between >1 μM and ≤3 μM is indicated by two stars (**)) | *** (a fold increase between >1.35 and ≤1.5 is indicated by three stars (***))
COc1ccc(-c2cc(=O)n3cc(N4CCC(NC(C)C)CC4)ccc3n2)cc1OC [Compound 361, 2-(3,4-dimethoxyphenyl)-7-[4-(propan-2-ylamino)piperidin-1-yl]-4H-pyrido[1,2-a]pyrimidin-4-one] | 0.1 to 0.3 |  | *** (a fold increase between >1.35 and ≤1.5 is indicated by three stars (***))
Cc1cn2cc(-c3ccc4nc(C5=CCNCC5)cc(=O)n4c3)cc(F)c2n1 [Compound 372, 7-(8-fluoro-2-methylimidazo[1,2-a]pyridin-6-yl)-2-(1,2,3,6-tetrahydropyridin-4-yl)-4H-pyrido[1,2-a]pyrimidin-4-one] | < 0.1 | **** (an EC1.5x≤0.3 μM is indicated by four stars (****)) | ***** (a fold increase >1.65 is indicated by five stars (*****))
CCN1CC=C(c2cc(C)c3nc(-c4ccc(OC)c(OC)c4)cc(=O)n3c2)CC1 [Compound 388, 2-(3,4-dimethoxyphenyl)-7-(1-ethyl-1,2,3,6-tetrahydropyridin-4-yl)-9-methyl-4H-pyrido[1,2-a]pyrimidin-4-one] | < 0.1 |  | *** (a fold increase between >1.35 and ≤1.5 is indicated by three stars (***))
COc1ccc(-c2cc(=O)n3cc(N4CCN5CCC[C@@H]5C4)cc(C)c3n2)cc1OC [Compound 414, 2-(3,4-dimethoxyphenyl)-7-[(8aR)-hexahydropyrrolo[1,2-a]pyrazin-2(1H)-yl]-9-methyl-4H-pyrido[1,2-a]pyrimidin-4-one] | < 0.1 | *** (an EC1.5× between >0.3 μM and ≤1 μM is indicated by three stars (***)) | ***** (a fold increase >1.65 is indicated by five stars (*****))
Cc1nc2ccc(-c3cc(=O)n4cc(C5=CCNCC5)ncc4n3)cc2o1.Cl [Compound 421, 2-(2-methyl-1,3-benzoxazol-6-yl)-7-(1,2,3,6-tetrahydropyridin-4-yl)-4H-pyrazino[1,2-a]pyrimidin-4-one hydrochloride (1:1)] | < 0.1 |  | *** (a fold increase between >1.35 and ≤1.5 is indicated by three stars (***))
Cc1cn2nc(-c3cc(=O)n4cc(C5CCNCC5)ccc4n3)cc2c(C)n1 [Compound 452, 2-(4,6-dimethylpyrazolo[1,5-a]pyrazin-2-yl)-7-(piperidin-4-yl)-4H-pyrido[1,2-a]pyrimidin-4-one] | < 0.1 | **** (an EC1.5x≤0.3 μM is indicated by four stars (****)) | ***** (a fold increase >1.65 is indicated by five stars (*****))
Cn1ncc2cc(-c3cc(=O)n4cc(C5=CCN(CCO)CC5)ccc4n3)ccc21 [Compound 471, 7-[1-(2-hydroxyethyl)-1,2,3,6-tetrahydropyridin-4-yl]-2-(1-methyl-1H-indazol-5-yl)-4H-pyrido[1,2-a]pyrimidin-4-one] | < 0.1 | **** (an EC1.5x≤0.3 μM is indicated by four stars (****)) | ***** (a fold increase >1.65 is indicated by five stars (*****))
